PubChem BioAssay AID330 (DTP/NCI, 2004)
“And” between values parts separate entries of the source, which are not always exact repeats. Equal values may be shown once. Inconclusive results and toxic doses are left out.

System: P388 leukemia ip, CD2F1 mice, survival T/C
Test: NCI In Vivo Anticancer Drug Screen. Data for tumor model P388 Leukemia (intraperitoneal) in CD2F1 (CDF1) mice
Settings: endpoint: median survival time, higher = longer survival
Procedure, shortened: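 Mice carrying the transplanted tumor received test compound or vehicle. Survival was recorded in each group, and the value is the treated-group measurement divided by that of the vehicle-treated control group.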

[1] = dose: 100.0 mg/kg/injection, schedule: Q01DX001 (ip), vehicle: Klucel (hydroxypropylcellulose) (HPC)
[2] = dose: 200.0 mg/kg/injection, schedule: Q01DX001 (ip), vehicle: Klucel (hydroxypropylcellulose) (HPC)
[3] = dose: 50.0 mg/kg/injection, schedule: Q01DX009 (ip), vehicle: saline with Tween-80
[4] = dose: 100.0 mg/kg/injection, schedule: Q01DX009 (ip), vehicle: saline with Tween-80
[5] = dose: 25.0 mg/kg/injection, schedule: Q01DX009 (ip), vehicle: saline with Tween-80
[6] = dose: 50.0 mg/kg/injection, schedule: Q01DX005 (ip), vehicle: saline with Tween-80
[7] = dose: 100.0 mg/kg/injection, schedule: Q01DX005 (ip), vehicle: saline with Tween-80
[8] = dose: 200.0 mg/kg/injection, schedule: Q01DX005 (ip), vehicle: saline with Tween-80
[9] = dose: 50.0 mg/kg/injection, schedule: Q01DX005 (ip), vehicle: Klucel (hydroxypropylcellulose) (HPC)
[10] = dose: 100.0 mg/kg/injection, schedule: Q01DX005 (ip), vehicle: Klucel (hydroxypropylcellulose) (HPC)
[11] = dose: 200.0 mg/kg/injection, schedule: Q01DX005 (ip), vehicle: Klucel (hydroxypropylcellulose) (HPC)
[12] = dose: 60.0 mg/kg/injection, schedule: Q01DX005 (ip), vehicle: saline with Tween-80
[13] = dose: 120.0 mg/kg/injection, schedule: Q01DX005 (ip), vehicle: saline with Tween-80
[14] = dose: 240.0 mg/kg/injection, schedule: Q01DX005 (ip), vehicle: saline with Tween-80
[15] = dose: 100.0 mg/kg/injection, schedule: Q01DX009 (ip), vehicle: Klucel (hydroxypropylcellulose) (HPC)
[16] = dose: 200.0 mg/kg/injection, schedule: Q01DX009 (ip), vehicle: Klucel (hydroxypropylcellulose) (HPC)
[17] = dose: 50.0 mg/kg/injection, schedule: Q01DX009 (ip), vehicle: saline
[18] = dose: 100.0 mg/kg/injection, schedule: Q01DX009 (ip), vehicle: saline
[19] = dose: 200.0 mg/kg/injection, schedule: Q01DX009 (ip), vehicle: saline
[20] = dose: 12.5 mg/kg/injection, schedule: Q01DX009 (ip), vehicle: saline with Tween-80

CCOC1=CS(C)(=O)=NC(SC)=C1C#N (stereo unspecified)
T/C (dose: 50.0 mg/kg/injection, schedule: Q01DX001 (ip), vehicle: Klucel (hydroxypropylcellulose) (HPC)): 99 % of control | T/C [1]: 105 % of control | T/C [2]: 99 % of control

CC(C)C(=NC1CCCCC1)NC(C)(C)C
T/C [3]: 93 % of control | T/C [4]: 99 % of control

O=C(/C=C/c1ccccc1O)/C=C/c1ccccc1O
T/C (dose: 8.0 mg/kg/injection, schedule: Q01DX009 (ip), vehicle: saline with Tween-80): 118 % of control | T/C (dose: 12.0 mg/kg/injection, schedule: Q01DX009 (ip), vehicle: saline with Tween-80): 118 % of control | T/C (dose: 18.0 mg/kg/injection, schedule: Q01DX009 (ip), vehicle: saline with Tween-80): 113 % of control | T/C [5]: 115 % of control

Nc1nc(N)c2[nH]c(=O)[nH]c2n1
T/C [6]: 103 % of control | T/C [7]: 103 % of control | T/C [8]: 118 % of control

Cc1ccc(C)c(CN(CCO)CCO)c1
T/C (dose: 60.0 mg/kg/injection, schedule: Q01DX005 (ip), vehicle: saline): 109 % of control | T/C (dose: 120.0 mg/kg/injection, schedule: Q01DX005 (ip), vehicle: saline): 102 % of control

O=C(NCCSCCSCCSCCNC(=O)Oc1ccccc1)Oc1ccccc1
T/C [1]: 92 % of control | T/C [2]: 91 % of control

CN(C)CC/C(Br)=C1/c2ccccc2Sc2ccc(Cl)cc21
T/C [9]: 111 % of control | T/C [10]: 98 % of control | T/C [11]: 93 % of control

COc1nc2c(ccn2C2OC(COC(C)=O)C(OC(C)=O)C(OC(C)=O)C2OC(C)=O)c(=O)n1C (stereo unspecified)
T/C [12]: 100 % of control | T/C [13]: 104 % of control | T/C [14]: 95 % of control

CCCCN(CCCC)C(=N)OC1CCCCC1
T/C (dose: 12.5 mg/kg/injection, schedule: Q01DX005 (ip), vehicle: saline with Tween-80): 102 % of control | T/C (dose: 25.0 mg/kg/injection, schedule: Q01DX005 (ip), vehicle: saline with Tween-80): 100 % of control | T/C [6]: 100 % of control

COc1ccc(OC)c(N(CCN2C(=O)c3ccccc3C2=O)C(=O)C2CCC(=O)C2C)c1 (stereo unspecified)
T/C [12]: 99 % of control | T/C [13]: 87 % of control

CN1C2=NC(=O)NC(=O)C23OC3c2ccccc21 (stereo unspecified) (tested in a mixture with another compound)
T/C [9]: 102 % of control | T/C [10]: 103 % of control

CCCN(CCC)C(C)C(O)c1cc2c(c3ccccc13)CCCC2 (stereo unspecified)
T/C [15]: 109 % of control | T/C [16]: 93 % of control

CCCCCCCCCCCCCCCC(=O)OCC(COP(=O)(O)OCC(COC(=O)CCCCCCCCCCCCCCC)OC(=O)CCCCCCCCCCCCCCC)OC(=O)CCCCCCCCCCCCCCC (stereo unspecified)
T/C [17]: 98 % of control | T/C [18]: 100 % of control | T/C [19]: 101 % of control

Cc1ccc(S(=O)(=O)N=S(C)(=O)CCCl)cc1 (stereo unspecified)
T/C (dose: 25.0 mg/kg/injection, schedule: Q04DX003 (ip), vehicle: saline): 100 % of control | T/C (dose: 50.0 mg/kg/injection, schedule: Q04DX003 (ip), vehicle: saline): 107 % of control | T/C (dose: 100.0 mg/kg/injection, schedule: Q04DX003 (ip), vehicle: saline): 100 % of control | T/C (dose: 100.0 mg/kg/injection, schedule: Q04DX003 (ip), vehicle: suspension in saline): 94 % of control

Cc1cc(C)n(/C(N)=N/[N+](=O)[O-])n1
T/C [17]: 96 % of control | T/C [18]: 105 % of control | T/C [19]: 86 % of control

O=C(/C=C/c1ccccc1[N+](=O)[O-])c1ccccc1
T/C (dose: 50.0 mg/kg/injection, schedule: Q04DX003 (ip), vehicle: saline with Tween-80): 99 % of control | T/C (dose: 100.0 mg/kg/injection, schedule: Q04DX003 (ip), vehicle: saline with Tween-80): 101 % of control | T/C (dose: 200.0 mg/kg/injection, schedule: Q04DX003 (ip), vehicle: saline with Tween-80): 101 % of control | T/C (dose: 400.0 mg/kg/injection, schedule: Q04DX003 (ip), vehicle: saline with Tween-80): 108 % of control

Nc1ccc2nc3cc(Nc4ccccc4)c(=Nc4ccccc4)cc-3n(-c3ccccc3)c2c1
T/C [6]: 100 % of control | T/C [7]: 98 % of control | T/C [8]: 93 % of control

CCCCn1c2nc(=O)[nH]c(=O)c-2cc2ccccc21
T/C [5]: 98 % of control | T/C [3]: 94 % of control | T/C [4]: 91 % of control

NCC(=O)c1ccc2oc3ccccc3c2c1
T/C [15]: 112 % of control | T/C [16]: 118 % of control

O=C(NC1CC(c2ccccc2)(c2ccccc2)OC1=O)OCc1ccccc1 (stereo unspecified)
T/C [20]: 90 % of control | T/C [5]: 93 % of control | T/C [3]: 90 % of control and 93 % of control | T/C (dose: 200.0 mg/kg/injection, schedule: Q01DX009 (ip), vehicle: saline with Tween-80): 93 % of control

O=C(Nc1cccc(C(F)(F)F)c1)Oc1ccc(Cl)c2cccnc12
T/C [12]: 99 % of control | T/C [13]: 98 % of control | T/C [14]: 105 % of control

COc1ccc(CCNC(=O)C(Sc2ccccn2)c2ccccc2)cc1OC (stereo unspecified)
T/C [9]: 94 % of control | T/C [10]: 103 % of control | T/C [11]: 98 % of control

COc1ccc2c(c1)O[C@H]1c3ccc(O)cc3OC[C@@H]21
T/C [6]: 100 % of control | T/C [7]: 91 % of control | T/C [8]: 91 % of control

N#CC(C(=O)O)c1ccc([N+](=O)[O-])cc1 (stereo unspecified)
T/C [9]: 105 % of control | T/C [10]: 96 % of control | T/C [11]: 99 % of control

CC1(C)CC(NC(=O)CCl)CC(C)(C)N1O
T/C [17]: 93 % of control | T/C [18]: 91 % of control | T/C [19]: 102 % of control

Nc1cc(=O)[nH]c(=S)n1-c1ccc(Br)cn1
T/C (dose: 100.0 mg/kg/injection, schedule: Q01DX001 (ip), vehicle: saline with Tween-80): 90 % of control | T/C (dose: 200.0 mg/kg/injection, schedule: Q01DX001 (ip), vehicle: saline with Tween-80): 100 % of control | T/C (dose: 400.0 mg/kg/injection, schedule: Q01DX001 (ip), vehicle: saline with Tween-80): 90 % of control

CC1(O)COC1(c1ccccc1)c1ccccc1 (stereo unspecified)
T/C [12]: 93 % of control | T/C [13]: 96 % of control | T/C [14]: 93 % of control

CC(=O)NNC(=O)Nc1ccc(Cl)c(Cl)c1
T/C (dose: 50.0 mg/kg/injection, schedule: Q01DX009 (ip), vehicle: Klucel (hydroxypropylcellulose) (HPC)): 108 % of control | T/C [15]: 103 % of control | T/C [16]: 91 % of control

Cn1/c2cc/c1=C(\c1ccc(S(=O)(=O)O)cc1)c1ccc([n-]1)/C(c1ccc(S(=O)(=O)O)cc1)=c1/cc/c([nH]1)=C(\c1ccc(S(=O)(=O)O)cc1)c1ccc([n-]1)/C=2c1ccc(S(=O)(=O)O)cc1.O.O=S(=O)(O)C(F)(F)F.[Cu+2]
T/C [20]: 112 % of control | T/C [5]: 121 % of control | T/C [3]: 119 % of control | T/C [17]: 92 % of control | T/C [18]: 100 % of control
